Laboratory results from ChEMBL document CHEMBL1201862, “PubChem BioAssay data set” (2004).
Active and inactive are the calls of the source.

Assays:
Aspartyl aminopeptidase = target: T1, Aspartyl aminopeptidase (Plasmodium falciparum 3D7, UniProt Q8I2J3)
T1 sequence (Q8I2J3 whole entry): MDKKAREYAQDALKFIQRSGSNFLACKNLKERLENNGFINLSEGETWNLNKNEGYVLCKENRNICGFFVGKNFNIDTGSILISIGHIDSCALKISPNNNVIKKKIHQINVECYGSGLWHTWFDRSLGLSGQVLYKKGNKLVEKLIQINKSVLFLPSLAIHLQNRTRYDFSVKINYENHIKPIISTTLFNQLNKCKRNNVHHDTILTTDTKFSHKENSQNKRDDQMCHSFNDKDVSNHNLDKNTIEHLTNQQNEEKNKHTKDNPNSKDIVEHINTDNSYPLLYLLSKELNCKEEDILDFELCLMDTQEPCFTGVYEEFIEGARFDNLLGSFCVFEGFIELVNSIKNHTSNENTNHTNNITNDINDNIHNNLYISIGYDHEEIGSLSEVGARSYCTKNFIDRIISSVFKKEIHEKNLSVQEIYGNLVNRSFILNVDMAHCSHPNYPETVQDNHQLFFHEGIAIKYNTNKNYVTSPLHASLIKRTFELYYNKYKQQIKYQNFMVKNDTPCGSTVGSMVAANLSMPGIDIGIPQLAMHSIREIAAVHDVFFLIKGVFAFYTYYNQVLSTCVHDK

Procathepsin L = Procathepsin L (Homo sapiens, UniProt P07711)
Procathepsin L, sequence (P07711 whole entry): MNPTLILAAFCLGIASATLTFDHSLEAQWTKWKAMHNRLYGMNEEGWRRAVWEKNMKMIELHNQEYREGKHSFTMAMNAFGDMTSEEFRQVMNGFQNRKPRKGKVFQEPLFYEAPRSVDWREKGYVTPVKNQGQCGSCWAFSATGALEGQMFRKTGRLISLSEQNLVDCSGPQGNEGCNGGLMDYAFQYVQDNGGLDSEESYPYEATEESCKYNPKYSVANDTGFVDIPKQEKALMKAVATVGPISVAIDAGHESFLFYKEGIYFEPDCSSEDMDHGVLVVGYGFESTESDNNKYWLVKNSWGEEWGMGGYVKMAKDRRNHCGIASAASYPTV

[1] = target: Intestinal-type alkaline phosphatase (Homo sapiens, UniProt P09923); experiment: activation of human intestinal alkaline phosphatase – biochemical, dose response (AID 488873); type: functional
Intestinal-type alkaline phosphatase (Homo sapiens, UniProt P09923), sequence (P09923 whole entry): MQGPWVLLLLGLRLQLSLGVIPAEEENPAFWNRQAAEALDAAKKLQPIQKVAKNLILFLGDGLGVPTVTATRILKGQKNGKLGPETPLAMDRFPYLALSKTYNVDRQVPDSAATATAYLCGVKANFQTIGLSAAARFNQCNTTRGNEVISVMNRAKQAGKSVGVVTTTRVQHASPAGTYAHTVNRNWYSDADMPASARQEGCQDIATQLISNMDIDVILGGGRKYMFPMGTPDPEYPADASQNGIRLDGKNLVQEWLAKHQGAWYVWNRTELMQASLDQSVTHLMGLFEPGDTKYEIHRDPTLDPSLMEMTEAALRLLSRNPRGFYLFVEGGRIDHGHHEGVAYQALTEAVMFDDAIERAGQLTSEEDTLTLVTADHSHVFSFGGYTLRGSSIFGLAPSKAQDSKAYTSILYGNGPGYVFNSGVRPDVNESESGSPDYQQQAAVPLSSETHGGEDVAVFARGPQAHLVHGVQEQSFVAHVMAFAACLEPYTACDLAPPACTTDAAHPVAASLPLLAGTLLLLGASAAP

[2] = target: Intestinal-type alkaline phosphatase (Mus musculus, UniProt P24822); experiment: PubChem AID 488785; type: functional
Intestinal-type alkaline phosphatase (Mus musculus, UniProt P24822), sequence (P24822 whole entry): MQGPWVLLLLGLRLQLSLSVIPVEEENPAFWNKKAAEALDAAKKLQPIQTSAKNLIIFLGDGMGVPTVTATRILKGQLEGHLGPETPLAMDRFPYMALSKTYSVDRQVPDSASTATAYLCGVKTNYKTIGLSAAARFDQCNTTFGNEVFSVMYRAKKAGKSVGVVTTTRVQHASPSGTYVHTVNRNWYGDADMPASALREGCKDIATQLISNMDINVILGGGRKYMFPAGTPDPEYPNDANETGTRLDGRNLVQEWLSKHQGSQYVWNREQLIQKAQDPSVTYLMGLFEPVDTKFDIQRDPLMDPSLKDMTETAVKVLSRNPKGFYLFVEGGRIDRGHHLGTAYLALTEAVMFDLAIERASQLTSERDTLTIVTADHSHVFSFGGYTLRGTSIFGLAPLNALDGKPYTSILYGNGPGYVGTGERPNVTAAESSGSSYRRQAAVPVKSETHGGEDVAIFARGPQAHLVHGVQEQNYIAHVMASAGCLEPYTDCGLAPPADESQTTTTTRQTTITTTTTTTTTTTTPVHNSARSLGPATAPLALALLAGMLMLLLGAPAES

[3] = target: T2, Alkaline phosphatase, tissue-nonspecific isozyme (Homo sapiens, UniProt P05186); experiment: TNAP enzyme inhibition by screening hits, dose response, selectivity assay for mouse IAP inhibitor project, biochemical, human TNAP, uHTS hits (AID 488906); type: functional
T2 sequence (P05186 whole entry): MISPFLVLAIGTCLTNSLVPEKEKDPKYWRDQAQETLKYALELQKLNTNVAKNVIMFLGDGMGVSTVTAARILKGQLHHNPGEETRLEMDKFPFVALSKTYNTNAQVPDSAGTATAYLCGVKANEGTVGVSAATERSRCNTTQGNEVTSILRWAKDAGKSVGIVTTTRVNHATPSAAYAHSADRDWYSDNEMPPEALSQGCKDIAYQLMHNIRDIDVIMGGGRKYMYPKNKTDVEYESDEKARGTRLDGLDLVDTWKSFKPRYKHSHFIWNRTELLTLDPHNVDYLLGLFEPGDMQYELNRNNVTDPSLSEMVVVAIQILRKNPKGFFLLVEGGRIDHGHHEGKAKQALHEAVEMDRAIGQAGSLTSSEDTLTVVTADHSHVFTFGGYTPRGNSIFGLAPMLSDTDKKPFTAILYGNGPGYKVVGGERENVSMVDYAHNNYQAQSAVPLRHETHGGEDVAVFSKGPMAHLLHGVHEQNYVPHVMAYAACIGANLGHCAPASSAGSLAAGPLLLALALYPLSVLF

[4] = target: T3, Replicative DNA helicase DnaB (Mycobacterium tuberculosis, UniProt P9WMR3); experiment: DnaB intein splicing inhibitors, dose response, biochemical, cell-free fluorescence (AID 449749); type: functional
T3 sequence (P9WMR3 whole entry): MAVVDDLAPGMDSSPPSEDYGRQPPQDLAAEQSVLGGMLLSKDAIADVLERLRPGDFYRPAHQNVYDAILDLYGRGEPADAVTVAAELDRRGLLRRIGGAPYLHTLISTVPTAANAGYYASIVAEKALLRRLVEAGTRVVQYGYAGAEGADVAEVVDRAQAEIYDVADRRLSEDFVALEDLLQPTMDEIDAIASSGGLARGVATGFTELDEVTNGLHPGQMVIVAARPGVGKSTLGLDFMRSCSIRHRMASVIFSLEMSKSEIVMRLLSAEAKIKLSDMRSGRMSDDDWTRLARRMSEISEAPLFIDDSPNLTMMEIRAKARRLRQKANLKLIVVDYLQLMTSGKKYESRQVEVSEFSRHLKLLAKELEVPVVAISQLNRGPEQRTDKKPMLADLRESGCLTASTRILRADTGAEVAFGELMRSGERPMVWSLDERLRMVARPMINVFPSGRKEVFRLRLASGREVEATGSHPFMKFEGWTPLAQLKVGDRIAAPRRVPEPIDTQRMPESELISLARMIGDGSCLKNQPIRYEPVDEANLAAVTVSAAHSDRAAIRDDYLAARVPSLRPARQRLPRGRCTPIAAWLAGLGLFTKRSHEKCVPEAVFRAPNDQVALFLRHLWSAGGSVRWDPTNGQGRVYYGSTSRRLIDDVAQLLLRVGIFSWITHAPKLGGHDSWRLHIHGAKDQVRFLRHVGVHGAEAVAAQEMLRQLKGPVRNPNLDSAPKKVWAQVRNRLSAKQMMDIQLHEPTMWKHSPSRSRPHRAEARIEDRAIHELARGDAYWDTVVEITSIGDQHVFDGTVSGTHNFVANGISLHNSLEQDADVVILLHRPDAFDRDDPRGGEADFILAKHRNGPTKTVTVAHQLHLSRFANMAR

Protein RecA = target: T4, Protein RecA (Mycobacterium tuberculosis, UniProt P9WHJ3); experiment: Fluorescence Cell-Free Homogeneous Dose Retest to Identify Inhibitors of RecA-Intein Splicing Activity. [Related pubchem assays (depositor defined):AID2097, AID2223, AID489010, AID492950]; type: functional
T4 sequence (P9WHJ3 whole entry): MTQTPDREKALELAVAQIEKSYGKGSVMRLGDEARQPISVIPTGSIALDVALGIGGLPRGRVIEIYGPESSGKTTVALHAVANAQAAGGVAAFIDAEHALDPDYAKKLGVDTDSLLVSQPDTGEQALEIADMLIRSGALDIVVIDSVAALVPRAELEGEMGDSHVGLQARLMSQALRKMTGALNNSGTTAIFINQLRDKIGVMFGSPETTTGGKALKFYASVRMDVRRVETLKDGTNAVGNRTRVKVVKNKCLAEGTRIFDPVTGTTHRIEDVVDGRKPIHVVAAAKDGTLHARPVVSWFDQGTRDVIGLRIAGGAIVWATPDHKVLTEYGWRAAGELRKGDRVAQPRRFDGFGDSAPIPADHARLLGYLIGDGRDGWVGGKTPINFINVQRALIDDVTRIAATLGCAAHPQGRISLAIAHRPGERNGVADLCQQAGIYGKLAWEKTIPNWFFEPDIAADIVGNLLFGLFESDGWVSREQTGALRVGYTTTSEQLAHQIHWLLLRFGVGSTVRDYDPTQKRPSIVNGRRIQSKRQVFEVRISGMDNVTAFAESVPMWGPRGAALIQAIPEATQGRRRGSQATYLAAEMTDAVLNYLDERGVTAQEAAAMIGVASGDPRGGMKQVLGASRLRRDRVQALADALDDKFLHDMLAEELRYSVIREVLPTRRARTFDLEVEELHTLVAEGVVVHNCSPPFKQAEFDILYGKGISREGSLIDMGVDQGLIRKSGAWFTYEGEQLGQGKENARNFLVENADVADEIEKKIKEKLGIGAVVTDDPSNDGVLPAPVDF

[5] = target: T5, Rac GTPase-activating protein 1 (Homo sapiens, UniProt Q9H0H5); experiment: MgcRacGAP GTPase-activating activity inhibitors, confirmation, biochemical, ADP Hunter fluorescence, primary and confirmatory (AID 624330); type: functional
T5 sequence (Q9H0H5 whole entry): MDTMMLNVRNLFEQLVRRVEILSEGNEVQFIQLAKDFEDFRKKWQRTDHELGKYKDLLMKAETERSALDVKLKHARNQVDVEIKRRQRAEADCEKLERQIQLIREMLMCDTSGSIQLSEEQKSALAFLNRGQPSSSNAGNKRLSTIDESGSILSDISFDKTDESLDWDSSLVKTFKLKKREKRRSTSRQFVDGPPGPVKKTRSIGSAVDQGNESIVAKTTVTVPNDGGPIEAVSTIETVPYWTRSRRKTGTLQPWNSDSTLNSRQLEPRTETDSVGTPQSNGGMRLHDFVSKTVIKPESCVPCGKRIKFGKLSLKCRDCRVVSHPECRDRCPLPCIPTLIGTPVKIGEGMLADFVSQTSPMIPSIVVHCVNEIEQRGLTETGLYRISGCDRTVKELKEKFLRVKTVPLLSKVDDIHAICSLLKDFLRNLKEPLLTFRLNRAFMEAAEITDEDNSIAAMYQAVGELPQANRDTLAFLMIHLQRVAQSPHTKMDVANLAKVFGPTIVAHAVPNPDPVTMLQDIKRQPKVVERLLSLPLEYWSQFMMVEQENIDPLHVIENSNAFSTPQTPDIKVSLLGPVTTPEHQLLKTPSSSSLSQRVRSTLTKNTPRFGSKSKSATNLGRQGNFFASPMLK

How did the IC50 (Aspartyl aminopeptidase) turn out when Oc1cc(O)c2c(c1)O[C@H](c1ccc(O)c(O)c1)[C@H](O)C2 [(-)-EPICATECHIN] was run?
The IC50 was 1.38 µM (active).

And the IC50 (Procathepsin L)?
The IC50 was > 59.6 µM (not active).

What about the EC50 [1] of the same compound?
Its EC50 is > 100 µM (inactive).

And the IC50 [2]?
The IC50 was 1.36 µM (active).

And the IC50 [3]?
Its IC50 is 0.407 µM (active).

And the AC50 [4]?
Its AC50 is > 380 µM (inactive).

And the EC50 (Protein RecA)?
Its EC50 is > 380 µM (inconclusive).

And the IC50 [5]?
The IC50 was 206 µM (active).
